Measurements as given in patent US20080280862A1, “Methods, compositions, and kits for the treatment of pain” (priority 2007, published 2008).

Key:
TNFα = TNFα secretion by human white blood cells stimulated with PMA/ionomycin, synergy score; assay type: cell-based; conditions: PBMC stimulated with PMA/Ionomycin
How it was run: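 Diluted human white blood cells stimulated with 10 ng/mL PMA and 750 ng/mL ionomycin (final) plus compound combinations at various concentrations, 16-18 h at 37 °C. Secreted TNFα measured by sandwich luminescent ELISA; synergy score is the dilution-weighted volume between measured and Loewe additive inhibition surfaces.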

[1] = test system: formalin-induced pain model in rats; test: Formalin pain model, nociceptive behaviors; assay type: in vivo, Sprague-Dawley rats
Protocol: The formalin model is a fast, reliable model used to assess potential analgesics ability to block inflammatory pain. The analgesic effects of test article combinations on pain generation are assayed using the formalin-induced pain model in rats. Adult male Sprague-Dawley rats are administered intraperitoneally study drugs (vehicle, TCA, steroid or TCA/Steroid test article combinations) once daily for 2 days (day −2 and day −1) and 30 minutes prior to the formalin injection day on day 0 (time=0). […] To elicit a pain response, dilute formalin (2% in saline) is injected under the skin of the plantar surface of the right hindpaw. The animal is placed in an observation chamber. The pain response is a characteristic biphasic response pattern of nociceptive behaviors (lifting, licking, and biting of the injected paw). Two distinct periods of nociceptive behaviors/activity are observed and recorded: an early phase (phase I) lasting the first 5-10 min and a late phase (phase II) lasting 20-40 min after the injection of formalin. One hour of data is collected (time spent displaying pain behavior) by a blinded observer using a stopwatch. Results are expressed as the number of pain behaviors per 5 minute periods (Table 8 and Table 9).

Structure (SMILES): CNCCC=C1c2ccccc2CCc2ccccc21 [Nortriptyline]
- Synergy Score based on TNF-α inhibition (TNFα; combination with Betamethasone): 0.83
- Synergy Score based on TNF-α inhibition (TNFα; combination with Budesonide): 1.6
- Synergy Score based on TNF-α inhibition (TNFα; combination with Dexamethasone): 1.7
- Synergy Score based on TNF-α inhibition (TNFα; combination with Hydrocortisone): 0.72
- Synergy Score based on TNF-α inhibition (TNFα; combination with Prednisolone): 1.1
- Synergy Score based on TNF-α inhibition (TNFα; combination with Triamcinolone): 0.88
- Mean number of behaviors per 5 minute block ([1]; Experiment One, nortriptyline, 1 mg/kg, 5 minutes): 185.0 ± 30.0
- Mean number of behaviors per 5 minute block ([1]; Experiment One, nortriptyline, 1 mg/kg, 10 minutes): 26.0 ± 16.0
- Mean number of behaviors per 5 minute block ([1]; Experiment One, nortriptyline, 1 mg/kg, 15 minutes): 16.0 ± 16.0
- Mean number of behaviors per 5 minute block ([1]; Experiment One, nortriptyline, 1 mg/kg, 20 minutes): 33.0 ± 22.0
- Mean number of behaviors per 5 minute block ([1]; Experiment One, nortriptyline, 1 mg/kg, 25 minutes): 124.0 ± 40.0
- Mean number of behaviors per 5 minute block ([1]; Experiment One, nortriptyline, 1 mg/kg, 30 minutes): 170.0 ± 46.0
- Mean number of behaviors per 5 minute block ([1]; Experiment One, nortriptyline, 1 mg/kg, 35 minutes): 181.0 ± 47.0
- Mean number of behaviors per 5 minute block ([1]; Experiment One, nortriptyline, 1 mg/kg, 40 minutes): 168.0 ± 46.0
- Mean number of behaviors per 5 minute block ([1]; Experiment One, nortriptyline, 1 mg/kg, 45 minutes): 176.0 ± 45.0
- Mean number of behaviors per 5 minute block ([1]; Experiment One, nortriptyline, 1 mg/kg, 50 minutes): 191.0 ± 42.0
- Mean number of behaviors per 5 minute block ([1]; Experiment One, nortriptyline, 1 mg/kg, 55 minutes): 165.0 ± 41.0
- Mean number of behaviors per 5 minute block ([1]; Experiment One, nortriptyline, 1 mg/kg, 60 minutes): 89.0 ± 34.0
- Mean number of behaviors per 5 minute block ([1]; Experiment One, nortriptyline, 3 mg/kg, 5 minutes): 248.0 ± 10.6
- Mean number of behaviors per 5 minute block ([1]; Experiment One, nortriptyline, 3 mg/kg, 10 minutes): 36.0 ± 12.0
- Mean number of behaviors per 5 minute block ([1]; Experiment One, nortriptyline, 3 mg/kg, 15 minutes): 87.0 ± 32.8
- Mean number of behaviors per 5 minute block ([1]; Experiment One, nortriptyline, 3 mg/kg, 20 minutes): 159.0 ± 39.7
- Mean number of behaviors per 5 minute block ([1]; Experiment One, nortriptyline, 3 mg/kg, 25 minutes): 182.0 ± 36.3
- Mean number of behaviors per 5 minute block ([1]; Experiment One, nortriptyline, 3 mg/kg, 30 minutes): 231.0 ± 32.4
- Mean number of behaviors per 5 minute block ([1]; Experiment One, nortriptyline, 3 mg/kg, 35 minutes): 253.0 ± 30.7
- Mean number of behaviors per 5 minute block ([1]; Experiment One, nortriptyline, 3 mg/kg, 40 minutes): 253.0 ± 30.8
- Mean number of behaviors per 5 minute block ([1]; Experiment One, nortriptyline, 3 mg/kg, 45 minutes): 258.0 ± 28.3
- Mean number of behaviors per 5 minute block ([1]; Experiment One, nortriptyline, 3 mg/kg, 50 minutes): 212.0 ± 28.3
- Mean number of behaviors per 5 minute block ([1]; Experiment One, nortriptyline, 3 mg/kg, 55 minutes): 136.0 ± 40.3
- Mean number of behaviors per 5 minute block ([1]; Experiment One, nortriptyline, 3 mg/kg, 60 minutes): 94.0 ± 41.7
- Mean number of behaviors per 5 minute block ([1]; Experiment One, nortriptyline, 10 mg/kg, 5 minutes): 227.0 ± 19.3
- Mean number of behaviors per 5 minute block ([1]; Experiment One, nortriptyline, 10 mg/kg, 10 minutes): 30.0 ± 18.2
- Mean number of behaviors per 5 minute block ([1]; Experiment One, nortriptyline, 10 mg/kg, 15 minutes): 11.0 ± 6.1
- Mean number of behaviors per 5 minute block ([1]; Experiment One, nortriptyline, 10 mg/kg, 20 minutes): 39.0 ± 29.4
- Mean number of behaviors per 5 minute block ([1]; Experiment One, nortriptyline, 10 mg/kg, 25 minutes): 62.0 ± 38.5
- Mean number of behaviors per 5 minute block ([1]; Experiment One, nortriptyline, 10 mg/kg, 30 minutes): 60.0 ± 34.4
- Mean number of behaviors per 5 minute block ([1]; Experiment One, nortriptyline, 10 mg/kg, 35 minutes): 99.0 ± 43.0
- Mean number of behaviors per 5 minute block ([1]; Experiment One, nortriptyline, 10 mg/kg, 40 minutes): 109.0 ± 44.0
- Mean number of behaviors per 5 minute block ([1]; Experiment One, nortriptyline, 10 mg/kg, 45 minutes): 122.0 ± 43.2
- Mean number of behaviors per 5 minute block ([1]; Experiment One, nortriptyline, 10 mg/kg, 50 minutes): 96.0 ± 39.1
- Mean number of behaviors per 5 minute block ([1]; Experiment One, nortriptyline, 10 mg/kg, 55 minutes): 140.0 ± 42.6
- Mean number of behaviors per 5 minute block ([1]; Experiment One, nortriptyline, 10 mg/kg, 60 minutes): 180.0 ± 40.3
- Mean number of behaviors per 5 minute block ([1]; Experiment One, nortriptyline, 20 mg/kg, 5 minutes): 158.0 ± 31.6
- Mean number of behaviors per 5 minute block ([1]; Experiment One, nortriptyline, 20 mg/kg, 10 minutes): 21.0 ± 12.8
- Mean number of behaviors per 5 minute block ([1]; Experiment One, nortriptyline, 20 mg/kg, 15 minutes): 0.0 ± 0.0
- Mean number of behaviors per 5 minute block ([1]; Experiment One, nortriptyline, 20 mg/kg, 20 minutes): 9.0 ± 8.8
- Mean number of behaviors per 5 minute block ([1]; Experiment One, nortriptyline, 20 mg/kg, 25 minutes): 30.0 ± 30.0
- Mean number of behaviors per 5 minute block ([1]; Experiment One, nortriptyline, 20 mg/kg, 30 minutes): 36.0 ± 29.9
- Mean number of behaviors per 5 minute block ([1]; Experiment One, nortriptyline, 20 mg/kg, 35 minutes): 33.0 ± 29.2
- Mean number of behaviors per 5 minute block ([1]; Experiment One, nortriptyline, 20 mg/kg, 40 minutes): 29.0 ± 29.3
- Mean number of behaviors per 5 minute block ([1]; Experiment One, nortriptyline, 20 mg/kg, 45 minutes): 33.0 ± 26.9
- Mean number of behaviors per 5 minute block ([1]; Experiment One, nortriptyline, 20 mg/kg, 50 minutes): 46.0 ± 28.2
- Mean number of behaviors per 5 minute block ([1]; Experiment One, nortriptyline, 20 mg/kg, 55 minutes): 47.0 ± 29.4
- Mean number of behaviors per 5 minute block ([1]; Experiment One, nortriptyline, 20 mg/kg, 60 minutes): 68.0 ± 37.6
- Mean number of behaviors per 5 minute block ([1]; Experiment Two, 1 mg/kg, 5 minutes): 232.0 ± 16.5
- Mean number of behaviors per 5 minute block ([1]; Experiment Two, 1 mg/kg, 10 minutes): 13.0 ± 4.9
- Mean number of behaviors per 5 minute block ([1]; Experiment Two, 1 mg/kg, 15 minutes): 27.0 ± 16.8
- Mean number of behaviors per 5 minute block ([1]; Experiment Two, 1 mg/kg, 20 minutes): 113.0 ± 44.2
- Mean number of behaviors per 5 minute block ([1]; Experiment Two, 1 mg/kg, 25 minutes): 165.0 ± 45.1
- Mean number of behaviors per 5 minute block ([1]; Experiment Two, 1 mg/kg, 30 minutes): 234.0 ± 26.3
- Mean number of behaviors per 5 minute block ([1]; Experiment Two, 1 mg/kg, 35 minutes): 270.0 ± 10.6
- Mean number of behaviors per 5 minute block ([1]; Experiment Two, 1 mg/kg, 40 minutes): 281.0 ± 10.4
- Mean number of behaviors per 5 minute block ([1]; Experiment Two, 1 mg/kg, 45 minutes): 287.0 ± 5.5
- Mean number of behaviors per 5 minute block ([1]; Experiment Two, 1 mg/kg, 50 minutes): 266.0 ± 16.6
- Mean number of behaviors per 5 minute block ([1]; Experiment Two, 1 mg/kg, 55 minutes): 192.0 ± 38.3
- Mean number of behaviors per 5 minute block ([1]; Experiment Two, 1 mg/kg, 60 minutes): 170.0 ± 46.6
- Mean number of behaviors per 5 minute block ([1]; Experiment Two, 3 mg/kg, 5 minutes): 228.0 ± 25.1
- Mean number of behaviors per 5 minute block ([1]; Experiment Two, 3 mg/kg, 10 minutes): 28.0 ± 12.3
- Mean number of behaviors per 5 minute block ([1]; Experiment Two, 3 mg/kg, 15 minutes): 10.0 ± 6.2
- Mean number of behaviors per 5 minute block ([1]; Experiment Two, 3 mg/kg, 20 minutes): 96.0 ± 43.8
- Mean number of behaviors per 5 minute block ([1]; Experiment Two, 3 mg/kg, 25 minutes): 162.0 ± 44.0
- Mean number of behaviors per 5 minute block ([1]; Experiment Two, 3 mg/kg, 30 minutes): 200.0 ± 45.0
- Mean number of behaviors per 5 minute block ([1]; Experiment Two, 3 mg/kg, 35 minutes): 217.0 ± 47.8
- Mean number of behaviors per 5 minute block ([1]; Experiment Two, 3 mg/kg, 40 minutes): 216.0 ± 47.3
- Mean number of behaviors per 5 minute block ([1]; Experiment Two, 3 mg/kg, 45 minutes): 220.0 ± 48.1
- Mean number of behaviors per 5 minute block ([1]; Experiment Two, 3 mg/kg, 50 minutes): 224.0 ± 42.0
- Mean number of behaviors per 5 minute block ([1]; Experiment Two, 3 mg/kg, 55 minutes): 247.0 ± 36.2
- Mean number of behaviors per 5 minute block ([1]; Experiment Two, 3 mg/kg, 60 minutes): 188.0 ± 36.8
